# Measurements as given in patent US20230094545A1, “S1P RECEPTOR MODULATORS” (AKAAL PHARMA PTY LTD, priority 2020, published 2023).
# Experiments:
# [1] = tested on: psoriasis; experiment: Topical treatment of psoriasis patients; assay type: in vivo, human
# Experimental: (§1) Twelve psoriasis patients were treated with the compound of Formula I@30 mg daily dosing under occlusion as topical treatment for 28 consecutive days. […] The systemic exposure after topical applications was recorded below the limit of quantification (BLQ) <0.400 ng/mL.
# [2] = Topical treatment of psoriasis patients; assay type: in vivo, human; conditions: human, in vivo, 30 mg daily; after topical applications, below the limit of quantification; read-out: systemic exposure
# Experimental: as §1
# [3] = tested on: CFA mediated pain; experiment: CFA (Freund's adjuvant) mediated pain, topical treatment; assay type: in vivo, Sprague Dawley Rats
# From the text: The total 24 female Sprague Dawley Rats were assigned to two test and two control groups having 6 animals per group. Animals from G1 and G2 received CFA on Day 1 by intraplanter route followed application of test item (0 and 3% respectively), onto injection site from Day 1 to Day 7. Group G3 and G4 animals received deep incision through the skin and fascia of the plantar foot followed by application of test item (0 and 3% respectively), onto the incision site from Day 1 to Day 7. Clinical signs, body weight and pain assessment parameters like Von Frey estimation and FOB was evaluated and the pain reduction results at Day 7 are summarized in Table 7.
# [4] = Systemic exposure in human subjects after topical application; conditions: in vivo
# From the text: The medicaments according to the present disclosure may contain from about 0.05% to about 10% by weight, or from about 0.5% to about 10% by weight, preferably from about 1.0 to about 4.5% by weight or preferably from about 1.5 to about 4.5% by weight, of the S1P receptor modulator. […] The dose of the S1P receptor modulator used in the treatment of the aforementioned disorders will vary in the usual way with the seriousness of the disorders, the weight of the sufferer, and other similar factors. In preferred embodiments, the medicament is applied to 100 cm^2 of body surface area per 1 g of medicament, up to 1000 cm^2 of body surface area per 1 g of medicament. The medicament can be applied such that the standard daily therapeutic dosage of active compound is ≤3 g. The topical dose level and strength of dose formulation with the compound of formula (I) may be extended to higher levels without risk of bradycardia and lymphopenia. For example, dose levels of medicaments according to the methods of the present disclosure may include up to: • 1. 10 g daily dose of up to 30% ww strength formulation with 1 g up to 300 cm^2 surface area • 2. 10 g daily dose of up to 30% ww strength formulation with 1 g up to 1000 cm2 surface area • 3. 100 g daily dose of up to 3% ww strength formulation with 1 g up to 300 cm^2 surface area • 4. 100 g daily dose of up to 3% ww strength formulation with 1 g up to 1000 cm2 surface area • 5. 300 g daily dose of up to 1% ww strength formulation with 1 g up to 300 cm^2 surface area. • 6. 300 g daily dose of up to 1% ww strength formulation with 1 g up to 1000 cm^2 surface area
# The body surface area of an adult is around 16,000 cm^2 to 18,000 cm^2 and the skin surface area varies from 10,000 cm^2 to 20,000 cm^2 (https://hypertextbook.com/facts/2001/IgorFridman.shtml, and references cited within). Human subjects received a topical application of 1 g of 3% by weight formulation per 150 cm^2 of body surface area (over the skin) twice daily for 21 days. The resulting systemic exposure was approximately 2.2 ng/ml.
# [5] = tested on: DSS-induced colitis; experiment: DSS-induced ulcerative colitis model; assay type: in vivo, Balb/C Mice
# Experimental: The effect of a compound of formula (I) was assessed in an animal model of Ulcerative colitis. 24 Balb/C Mice were divided into […]; control and treatment (n=6). Acute colitis was induced in all groups by adding 2.5% w/v Dextran Sulphate Sodium (DSS) treatment in drinking water for 5-7 days. A compound of Formula I was administered at dose of 3 mg/kg body weight by oral route as a repeated dose for 3 or 6 days, consecutively. […] During day 6 these observations were reduced to 16.66% in control and 0.00% in a compound of Formula I group.
# The mean colon lengths were 9.67 cm, 9.88 cm, 11.20 cm and 13.02 cm in day 3 control group, day 6 control group, day 3 a compound of Formula I treated group and day 6 a compound of Formula I treated group respectively. […] The severity of presence of haemorrhages with desquamated cells seen in lumen of colon of control animals was reduced in a compound of Formula (I) treated animals.
# [6] = Topical treatment of atopic dermatitis patients; assay type: in vivo, human; conditions: human, in vivo; by week 3, 60 mg daily topical; read-out: systemic exposure
# Experimental: (§2) Atopic dermatitis patients were treated with the compound of Formula I@60 mg daily dosing as topical treatment for 28 consecutive days.
# [7] = tested on: atopic dermatitis; experiment: Topical treatment of atopic dermatitis patients; assay type: in vivo, human
# Experimental: as §2
# [8] = Systemic exposure and lymphopenia in mice; assay type: in vivo
# [9] = tested on: middle cerebral artery occlusion (MCAO); experiment: Middle cerebral artery occlusion (MCAO) model of stroke; assay type: in vivo; conditions: oral 1, 3 and 5 mg/kg; ischemia 60 min, reperfusion 72 h
# Experimental: The compound of Formula I was assessed in an animal model of stroke, namely the middle cerebral artery occlusion (MCAO) model. The effect of a compound of Formula I on infarctions (TTC staining) and BBB leakage (Evan's blue extravasation) ischemia for 60 min and reperfusion for 72 h was assessed.
compound,measurement,setting,value
CCCOc1ccc(-c2nc(-c3ccc4oc(C(N)(CO)CO)cc4c3)no2)cc1Cl [compound of formula (I)],absolute lymphocyte count,"[1]; 30 mg daily topical, 28 days",no systemic change in the absolute lymphocyte count
same,tolerability,"[1]; 30 mg daily topical, 28 days",well tolerated
same,local psoriasis severity index (LPSI) score,"[1]; day 28, from 5.8 (day 1), 30 mg daily topical under occlusion, p<0.0016",−2.1
same,plaque area,"[1]; some subjects, image analysis",reduction in plaque area
same,concentration at 28 days,[2],< 0.4 ng/mL
same,"Pain reduction results at Day 7, CFA mediated pain","[3]; 3% (G2), Placebo (G1) 0.17",0.00
same,pain relief,"[3]; 3% topical Day 1 to Day 7, day 7",complete pain relief
same,concentration at 3 weeks,"[4]; 2 g daily of 3% ww formulation, 2 g daily topical 3% ww formulation for 3 weeks",~2.5 ng/mL
same,concentration at 21 days,"[4]; topical, 1 g of 3% by weight formulation per 150 cm^2, 1 g of 3% by weight formulation per 150 cm2 twice daily for 21 days",~2.2 ng/mL
same,concentration at 1 week,"[4]; topical, 2 g of 3% or 6% by weight formulation (60 mg or 120 mg) over the joint area for one week",≤ 2.5 ng/mL
same,"DSS-induced colitis, overall",[5]; 3 mg/kg oral daily,improvement of DSS-induced colitis
same,mean colon length,"[5]; day 3, 3 mg/kg oral",11.20 cm
same,"gross pathological observations (emaciated, anal area soiled with blood)","[5]; day 6, 3 mg/kg oral",0.00%
same,mean colon length,"[5]; day 6, 3 mg/kg oral",13.02 cm
same,increase in mucus secreting goblet cells,[5]; histopathology day 6,moderate ( 4/6 animals) to minimal (⅙ animals) increase
same,infiltration of MNC,[5]; histopathology day 6,minimal in 2/6 animals and mild in ⅙ animals
same,thickness of mucosa,"[5]; histopathology day 6, compared to control",markedly reduced
same,incidence of increase in thickness of mucosa,[5]; histopathology of colon,mild in 3/6 animals and minimal in 2/6 animals
same,number of mucus secreting goblet cells,[5]; histopathology of colon,increased moderately ( 4/6)
same,severity of haemorrhages with desquamated cells in lumen of colon,[5]; histopathology of colon,reduced
same,concentration at 3 week,[6],1 to 2.5 ng/mL
same,EASI score and pruritus score,"[7]; 60 mg daily topical, 28 days",reduction compared to baseline
same,absolute lymphocyte count,"[7]; 60 mg daily topical, 28 days",no systemic change in the absolute lymphocyte count
same,tolerability,"[7]; 60 mg daily topical, 28 days",well tolerated
same,lymphopenia,[7]; by week 3,no lymphopenia event
same,measured lymphopenia,"[8]; 0.3 mg/kg, 6 hours post dose",40%
same,systemic exposure,[8]; dose of 0.3 mg/kg,6.36 ng/mL
same,"infarct volume, infarct area, sensory motor function, blood brain barrier leakage",[9],"significantly reduced the infarct volume, infract area and sensory motor function and blood brain barrier leakage"
